Here are results for twelve compounds from patent US20160158317A1, “Antimicrobial Peptide Variants and Polynucleotides Encoding Same” (Adenium Biotech A/S, priority 2010, published 2016).

Where a SMILES comes first, the peptide text is derived from it. Bridges are numbered along the chain shown (N, C = ends).

The nature of this data set: Determination of the protein binding (90% serum, 30 kDa filter, HPLC). It counts as in vitro ADME. To be noted: serum. As to the method:
Protein binding assays were performed as follows. The purified peptides were mixed with 90% serum and centrifuged through a 30 kDa filter. The ultra-filtrate and the non filtrated serum samples were quantified by HPLC measurements and the protein binding was subsequently calculated.
As usually defined, the fraction unbound is the share of the substance not bound to proteins or other matrix. Higher therefore signals much free substance. The compound `CC(C)[C@@H]1NC(=O)[C@@H]2CSSC[C@H](NC(=O)[C@H](C)NC(=O)[C@H](CCCNC(=N)N)NC(=O)[C@H](CCCCN)NC(=O)CNC(=O)[C@H](CC(N)=O)NC(=O)[C@H](CCCNC(=N)N)NC(=O)[C@H](Cc3ccc(O)cc3)NC1=O)C(=O)N[C@@H](Cc1ccc(O)cc1)C(=O)N[C@@H](CCCNC(=N)N)C(=O)N[C@@H](CCCNC(=N)N)C(=O)N[C@H](C(=O)N[C@@H](CC(N)=O)C(=O)O)CSSC[C@H](NC(=O)[C@H](Cc1ccccc1)NC(=O)CN)C(=O)N[C@@H](Cc1c[nH]c3ccccc13)C(=O)N[C@@H](Cc1ccc(O)cc1)C(=O)N[C@@H](C)C(=O)N2` [compound 340] (H-GFCWYACVYRNGKRACYRRCN-OH; disulfide 3-20, 7-16 (inferred); N-terminus and C-terminus assumed) gave an unbound share (fraction unbound) of 0.02.

For the compound `CC(C)[C@@H]1NC(=O)CNC(=O)[C@H](CC(N)=O)NC(=O)[C@H](CCCNC(=N)N)NC(=O)[C@H](Cc2ccc(O)cc2)NC(=O)[C@H](C)NC(=O)[C@@H]2CSSC[C@H](NC(=O)[C@H](C(C)C)NC(=O)[C@H](CCCNC(=N)N)NC1=O)C(=O)N[C@@H](Cc1ccc(O)cc1)C(=O)N[C@@H](CCCNC(=N)N)C(=O)N[C@@H](CCCNC(=N)N)C(=O)N[C@H](C(=O)N[C@@H](CC(N)=O)C(=O)O)CSSC[C@H](NC(=O)[C@H](Cc1ccccc1)NC(=O)CN)C(=O)N[C@@H](Cc1c[nH]c3ccccc13)C(=O)N[C@@H](Cc1ccc(O)cc1)C(=O)N[C@@H](C(C)C)C(=O)N2` [compound 21] (H-GFCWYVCAYRNGVRVCYRRCN-OH; disulfide 3-20, 7-16 (inferred); N-terminus and C-terminus assumed), the fraction unbound is 0.015.

Consider `CC(C)[C@@H]1NC(=O)CNC(=O)[C@H](CC(N)=O)NC(=O)[C@H](CCCNC(=N)N)NC(=O)[C@H](Cc2ccc(O)cc2)NC(=O)[C@H](C(C)C)NC(=O)[C@@H]2CSSC[C@H](NC(=O)[C@H]([C@@H](C)O)NC(=O)[C@H](CCCNC(=N)N)NC1=O)C(=O)N[C@@H](Cc1ccc(O)cc1)C(=O)N[C@@H](CCCNC(=N)N)C(=O)N[C@@H](CCCNC(=N)N)C(=O)N[C@H](C(=O)N[C@@H](CC(N)=O)C(=O)O)CSSC[C@H](NC(=O)[C@H](Cc1ccccc1)NC(=O)CN)C(=O)N[C@@H](Cc1ccc(O)cc1)C(=O)N[C@@H](CCCNC(=N)N)C(=O)N[C@@H](C(C)C)C(=O)N2` [compound 209] (H-GFCYRVCVYRNGVRTCYRRCN-OH; disulfide 3-20, 7-16 (inferred); N-terminus and C-terminus assumed), for which the fraction unbound is 0.11.

In turn, `CC(C)[C@@H]1NC(=O)[C@H](CCCNC(=N)N)NC(=O)[C@H](CCCCN)NC(=O)CNC(=O)[C@H](CC(N)=O)NC(=O)[C@H](CO)NC(=O)[C@H](Cc2ccc(O)cc2)NC(=O)[C@H](Cc2c[nH]cn2)NC(=O)[C@@H]2CSSC[C@H](NC1=O)C(=O)N[C@@H](Cc1ccc(O)cc1)C(=O)N[C@@H](CCCNC(=N)N)C(=O)N[C@@H](CCCNC(=N)N)C(=O)N[C@H](C(=O)N[C@@H](CC(N)=O)C(=O)O)CSSC[C@H](NC(=O)[C@H](Cc1ccccc1)NC(=O)CN)C(=O)N[C@@H](Cc1c[nH]c3ccccc13)C(=O)N[C@@H](CCCNC(=N)N)C(=O)N[C@@H](C(C)C)C(=O)N2` [compound 439] (H-GFCWRVCHYSNGKRVCYRRCN-OH; disulfide 3-20, 7-16 (inferred); N-terminus and C-terminus assumed) gave a fraction unbound of 0.08.

`CC(C)[C@@H]1NC(=O)CNC(=O)[C@H](CC(N)=O)NC(=O)[C@H](CCCNC(=N)N)NC(=O)[C@H](Cc2ccc(O)cc2)NC(=O)[C@H](Cc2ccccc2)NC(=O)[C@@H]2CSSC[C@H](NC(=O)[C@H](C(C)C)NC(=O)[C@H](CCCNC(=N)N)NC1=O)C(=O)N[C@@H](Cc1c[nH]cn1)C(=O)N[C@@H](CCCNC(=N)N)C(=O)N[C@@H](CCCNC(=N)N)C(=O)N[C@H](C(=O)N[C@@H](CC(N)=O)C(=O)O)CSSC[C@H](NC(=O)[C@H](Cc1ccccc1)NC(=O)CN)C(=O)N[C@@H](Cc1c[nH]c3ccccc13)C(=O)N[C@@H](CC(N)=O)C(=O)N[C@@H](C(C)C)C(=O)N2` [compound 272] (H-GFCWNVCFYRNGVRVCHRRCN-OH; disulfide 3-20, 7-16) had a fraction unbound of 0.26.

For the compound `CC(C)[C@@H]1NC(=O)[C@@H]2CSSC[C@H](NC(=O)[C@H](CO)NC(=O)[C@H](CCCNC(=N)N)NC(=O)[C@H](C)NC(=O)CNC(=O)[C@H](CC(N)=O)NC(=O)[C@H](CCCNC(=N)N)NC(=O)[C@H](Cc3ccc(O)cc3)NC1=O)C(=O)N[C@@H](Cc1ccc(O)cc1)C(=O)N[C@@H](CCCNC(=N)N)C(=O)N[C@@H](CCCNC(=N)N)C(=O)N[C@H](C(=O)N[C@@H](CC(N)=O)C(=O)O)CSSC[C@H](NC(=O)[C@H](Cc1ccccc1)NC(=O)CN)C(=O)N[C@@H](Cc1c[nH]c3ccccc13)C(=O)N[C@@H](Cc1c[nH]cn1)C(=O)N[C@@H](C(C)C)C(=O)N2` [compound 213] (H-GFCWHVCVYRNGARSCYRRCN-OH; disulfide 3-20, 7-16 (inferred); N-terminus and C-terminus assumed), the fraction unbound was 0.05.

As to `CSCC[C@H](N)C(=O)N[C@@H](Cc1ccccc1)C(=O)N[C@H]1CSSC[C@@H](C(=O)N[C@@H](CC(N)=O)C(=O)O)NC(=O)[C@H](CCCNC(=N)N)NC(=O)[C@H](CCCNC(=N)N)NC(=O)[C@H](Cc2c[nH]cn2)NC(=O)[C@@H]2CSSC[C@H](NC(=O)[C@H](C(C)C)NC(=O)[C@H](CC(N)=O)NC(=O)[C@H](Cc3c[nH]c4ccccc34)NC1=O)C(=O)N[C@@H](C(C)C)C(=O)N[C@@H](Cc1ccc(O)cc1)C(=O)N[C@@H](CCCNC(=N)N)C(=O)N[C@@H](CC(N)=O)C(=O)NCC(=O)N[C@@H](C(C)C)C(=O)N[C@@H](CCCNC(=N)N)C(=O)N[C@@H](C(C)C)C(=O)N2` [compound 101] (H-MFCWNVCVYRNGVRVCHRRCN-OH; disulfide 3-20, 7-16 (inferred); N-terminus and C-terminus assumed), the fraction unbound is 0.19.

Compound `CC(C)[C@@H]1NC(=O)CNC(=O)[C@H](CC(N)=O)NC(=O)[C@H](CCCNC(=N)N)NC(=O)[C@H](Cc2ccc(O)cc2)NC(=O)[C@H](C(C)C)NC(=O)[C@@H]2CSSC[C@H](NC(=O)[C@H](C(C)C)NC(=O)[C@H](CCCNC(=N)N)NC1=O)C(=O)N[C@@H](Cc1c[nH]cn1)C(=O)N[C@@H](CCCNC(=N)N)C(=O)N[C@@H](CCCNC(=N)N)C(=O)N[C@H](C(=O)N[C@@H](Cc1c[nH]cn1)C(=O)O)CSSC[C@H](NC(=O)[C@H](Cc1ccccc1)NC(=O)CN)C(=O)N[C@@H](Cc1c[nH]c3ccccc13)C(=O)N[C@@H](CC(N)=O)C(=O)N[C@@H](C(C)C)C(=O)N2` [compound 282] (H-GFCWNVCVYRNGVRVCHRRCH-OH; disulfide 3-20, 7-16 (inferred); N-terminus and C-terminus assumed) had a fraction unbound of 0.18.

Take `CC(C)[C@@H]1NC(=O)CNC(=O)[C@H](CC(N)=O)NC(=O)[C@H](CCCNC(=N)N)NC(=O)[C@H](Cc2ccc(O)cc2)NC(=O)[C@H](C(C)C)NC(=O)[C@@H]2CSSC[C@H](NC(=O)[C@H](C(C)C)NC(=O)[C@H](CCCNC(=N)N)NC1=O)C(=O)N[C@@H](Cc1c[nH]cn1)C(=O)N[C@@H](CCCNC(=N)N)C(=O)N[C@@H](CCCNC(=N)N)C(=O)N[C@H](C(=O)N[C@@H](CC(N)=O)C(=O)O)CSSC[C@H](NC(=O)[C@H](Cc1ccccc1)NC(=O)CN)C(=O)N[C@@H](Cc1c[nH]c3ccccc13)C(=O)N[C@@H](CC(N)=O)C(=O)N[C@@H](Cc1c[nH]c3ccccc13)C(=O)N2` [compound 267] (H-GFCWNWCVYRNGVRVCHRRCN-OH; disulfide 3-20, 7-16 (inferred); N-terminus and C-terminus assumed): the fraction unbound is 0.15.

`CC(C)[C@@H]1NC(=O)CNC(=O)[C@H](CC(N)=O)NC(=O)[C@H](CCCNC(=N)N)NC(=O)[C@H](Cc2ccc(O)cc2)NC(=O)[C@H](C(C)C)NC(=O)[C@@H]2CSSC[C@H](NC(=O)[C@H](C(C)C)NC(=O)[C@H](CCCNC(=N)N)NC1=O)C(=O)N[C@@H](Cc1ccc(O)cc1)C(=O)N[C@@H](CCCNC(=N)N)C(=O)N[C@@H](CCCNC(=N)N)C(=O)N[C@H](C(=O)N[C@@H](CC(N)=O)C(=O)O)CSSC[C@H](NC(=O)[C@H](Cc1ccccc1)NC(=O)CN)C(=O)N[C@@H](Cc1c[nH]c3ccccc13)C(=O)N[C@@H](CCCNC(=N)N)C(=O)N[C@@H](C)C(=O)N2` [compound 72] (H-GFCWRACVYRNGVRVCYRRCN-OH; disulfide 3-20, 7-16 (inferred); N-terminus and C-terminus assumed) had a fraction unbound of 0.03.

Compound `CC(C)[C@@H]1NC(=O)CNC(=O)[C@H](CC(N)=O)NC(=O)[C@H](CCCNC(=N)N)NC(=O)[C@H](Cc2ccc(O)cc2)NC(=O)[C@H](C(C)C)NC(=O)[C@@H]2CSSC[C@H](NC(=O)[C@H](C(C)C)NC(=O)[C@H](CCCNC(=N)N)NC1=O)C(=O)N[C@@H](CO)C(=O)N[C@@H](CCCNC(=N)N)C(=O)N[C@@H](CCCNC(=N)N)C(=O)N[C@H](C(=O)N[C@@H](CC(N)=O)C(=O)O)CSSC[C@H](NC(=O)[C@H](Cc1ccccc1)NC(=O)CN)C(=O)N[C@@H](Cc1c[nH]c3ccccc13)C(=O)N[C@@H](CCCCN)C(=O)N[C@@H](C(C)C)C(=O)N2` [compound 68] (H-GFCWKVCVYRNGVRVCSRRCN-OH; disulfide 3-20, 7-16 (inferred); N-terminus and C-terminus assumed) gave a fraction unbound of 0.13.

`CC(C)[C@@H]1NC(=O)CNC(=O)CNC(=O)[C@H](CCCNC(=N)N)NC(=O)[C@H](Cc2ccc(O)cc2)NC(=O)[C@H](C(C)C)NC(=O)[C@@H]2CSSC[C@H](NC(=O)[C@H](C(C)C)NC(=O)[C@H](CCCNC(=N)N)NC1=O)C(=O)N[C@@H](Cc1c[nH]cn1)C(=O)N[C@@H](CCCNC(=N)N)C(=O)N[C@@H](CCCNC(=N)N)C(=O)N[C@H](C(=O)N[C@@H](CC(N)=O)C(=O)O)CSSC[C@H](NC(=O)[C@H](Cc1ccccc1)NC(=O)CN)C(=O)N[C@@H](Cc1c[nH]c3ccccc13)C(=O)N[C@@H](CC(N)=O)C(=O)N[C@@H](C(C)C)C(=O)N2` [compound 231] (H-GFCWNVCVYRGGVRVCHRRCN-OH; disulfide 3-20, 7-16 (inferred); N-terminus and C-terminus assumed) gave a fraction unbound of 0.34.
